From paper PMC11352099 (RSC Medicinal Chemistry, 2024)
Where “and” joins values, the source holds several entries; their conditions need not be identical. Equal entries are not always repeated. Where two headings read alike, the source gives them in different places.

Experiments:
[1] = target: SARS-CoV-2 nsp14 MTase (Severe acute respiratory syndrome coronavirus 2, UniProt P0DTD1); experiment: biochemical; assay type: biochemical; details: for Hill slope: Table S1, dose-response curve, variable slope model
[2] = tested on: SARS-CoV-2 strain hCoV-19/Czech Republic/NRL_6632_2/2020; experiment: microbe, parasite or virus in culture; assay type: cell-based; details: Severe acute respiratory syndrome coronavirus 2; Calu-3 cell line; read-out: EC50 (antiviral effect)
[3] = for Plasma stability % of the parent compound after 120 min, Mouse: 10 μM
[4] = microsomes, 0.75 h, 10 µM, pH 7.4
[5] = in vitro; details: human; for efflux ratio at 2 h, 10 µM: Caco-2; for Papp A→B at 2 h, 10 µM / Papp B→A at 2 h, 10 µM: Caco-2, pH 7.4
Method: (§1) 3.5. Caco-2 permeability assay
(§2) Transepithelial bi-directional transport of compounds (10 µM, pH 7.4/7.4) was tested on 21-day differentiated Caco-2 monolayers. Briefly, the cells were seeded at a density of 67 ,500 cells per 96-well plate insert (Millicell®, Merck KGaA, Darmstadt, Germany). They were left to differentiate for 21 days with medium exchange every 2–3 days. Prior to the experiment, the medium from both apical and basolateral well was exchanged for HBSS buffer (containing 10 mM HEPES and 25 mM glucose) and left to equilibrate for 30 min. Compound permeability was assayed by replacing pure HBSS with HBSS containing 10 μM compounds and 220 μM Lucifer yellow (LY) solution in an apical insert (A to B transport) or in a basolateral well (B to A transport). The tre ated cells were then returned to the incubator for 2 h at 37 °C. After that, samples were collected from both apical inserts and basolateral wells and analyzed using LC -MS/MS (SCIEX Triple Quad™ 7500 QTRAP® Ready). LC separation was done on Synergi 4µm Fusion 50 × 2 mm column (Phenomenex) using a water/acetonitrile gradient with 0.1% formic acid starting from 2 to 98% for 4.5 min.
(§3) The apparent permeability coefficient (Papp) was calculated from t he following equation: Papp = (dQ / dt) / C0 * A, where dQ/dt is the rate of absorption of the drug across the cells, C0 is the donor compartment concentration at time zero, and A is the area of the monolayer. Efflux ratio was expressed as (Papp B -A) / (Papp A-B). Recovery (%) was determined as (total compound mass i n donor and receiver compartments at the end of the incubation / initial compound mass in the donor compartment) x 100. The data represent means ± SD of two independent experiments performed in triplicate. […]
(§4) were used as control compounds.

[6] = tested on: Caco-2 monolayers; experiment: in vitro; details: Caco-2
Method: as §1, §2, §3, §4

[7] = target: human RNMT (Homo sapiens, UniProt O43148); experiment: Off-target inhibition of human RNMT; assay type: biochemical; details: 25 μM concentration of inhibitor
Text: Human cells rely on several MTases; therefore, it is necessary to assess the possible off-target effect. […]

[8] = microsomes, 0.75 h, 10 µM, pH 7.4; remark: listed apart in the source
[9] = for Plasma stability % of the parent compound after 120 min, Human: 10 μM
[10] = Table 1 and text, N.I., no inhibition, read-out: IC50
[11] = Table 1 and text, N.I., no inhibition
[12] = Table S1, read-out: IC50 (inhibitory activity)

Chain of human RNMT (O43148 whole entry): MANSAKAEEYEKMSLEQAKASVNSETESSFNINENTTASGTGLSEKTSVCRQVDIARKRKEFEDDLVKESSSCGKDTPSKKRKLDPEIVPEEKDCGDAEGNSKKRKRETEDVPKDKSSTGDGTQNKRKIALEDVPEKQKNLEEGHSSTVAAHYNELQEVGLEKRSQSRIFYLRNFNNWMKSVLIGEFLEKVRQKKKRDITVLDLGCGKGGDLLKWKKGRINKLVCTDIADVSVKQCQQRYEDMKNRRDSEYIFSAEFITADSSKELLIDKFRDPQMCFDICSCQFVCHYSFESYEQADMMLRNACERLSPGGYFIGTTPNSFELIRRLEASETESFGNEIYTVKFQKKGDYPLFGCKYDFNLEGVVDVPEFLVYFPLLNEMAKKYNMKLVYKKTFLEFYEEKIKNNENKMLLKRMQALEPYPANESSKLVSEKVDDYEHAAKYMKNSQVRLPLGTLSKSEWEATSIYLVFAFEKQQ

COC(=O)c1ccc(NC(=O)[C@H]2O[C@@H](n3cnc4c(N)ncnc43)[C@H](O)[C@@H]2O)cc1 [12a]
IC50 [1, 10]: > 25 µM

NC(=O)c1ccc(NC(=O)[C@H]2O[C@@H](n3cnc4c(N)ncnc43)[C@H](O)[C@@H]2O)cc1 [12b]
IC50 [1, 11]: N.I.

COc1cccc(NC(=O)[C@H]2O[C@@H](n3cnc4c(N)ncnc43)[C@H](O)[C@@H]2O)c1 [12c]
IC50 [1, 11]: N.I.

COc1ccc(NC(=O)[C@H]2O[C@@H](n3cnc4c(N)ncnc43)[C@H](O)[C@@H]2O)cc1O [12d]
IC50 [1, 10]: > 25 µM

Cc1ccc(NC(=O)[C@H]2O[C@@H](n3cnc4c(N)ncnc43)[C@H](O)[C@@H]2O)cc1O [12e]
IC50 [1, 11]: N.I.

COC(=O)c1cc(NC(=O)[C@H]2O[C@@H](n3cnc4c(N)ncnc43)[C@H](O)[C@@H]2O)ccc1F [12f]
IC50 [1, 11]: N.I.

Nc1ncnc2c1ncn2[C@@H]1O[C@H](C(=O)Nc2ccc(-c3ccoc3)cc2)[C@@H](O)[C@H]1O [12g, (2S,3S,4R,5R)-5-(6-Amino-9H-purin-9-yl)-N-(4-(furan-3-yl)phenyl)-3,4-dihydroxytetrahydrofuran-2-carboxamide]
IC50 [1, 11]: N.I.

Nc1ncnc2c1ncn2[C@@H]1O[C@H](C(=O)Nc2ccc(-c3ccsc3)cc2)[C@@H](O)[C@H]1O [12h]
IC50 [1, 11]: N.I.

Nc1ncnc2c1ncn2[C@@H]1O[C@H](C(=O)Nc2ccc(-c3cn[nH]c3)cc2)[C@@H](O)[C@H]1O [12i]
IC50 [1, 11]: N.I.

Cc1noc(C)c1-c1ccc(NC(=O)[C@H]2O[C@@H](n3cnc4c(N)ncnc43)[C@H](O)[C@@H]2O)cc1 [12j]
IC50 [1, 11]: N.I.

Nc1ncnc2c1ncn2[C@@H]1O[C@H](C(=O)Nc2ccc3c(c2)OCCO3)[C@@H](O)[C@H]1O [12k]
IC50 [1, 10]: 1.8 µM and 1.81 µM
Hill slope [1]: -1.01
IC50 [1, 12]: 1.81 µM

Cc1cc(=O)oc2cc(NC(=O)[C@H]3O[C@@H](n4cnc5c(N)ncnc54)[C@H](O)[C@@H]3O)ccc12 [12l]
EC50 [2]: > 50 µM
Plasma stability % of the parent compound after 120 min, Mouse [3]: 93 ± 2.7%
Microsomal stability % of the parent compound after 45 min, Human [4]: 104 ± 4.1%
efflux ratio at 2 h, 10 µM [5]: 3.4
recovery at 2 h, 10 µM ([5]; Caco-2, Recovery (%) A-B): 85%
recovery at 2 h, 10 µM ([5]; Caco-2, Recovery (%) B-A): 83%
Papp A→B at 2 h, 10 µM [5]: 3.1 ± 1.3 ×10⁻⁶ cm/s
Papp B→A at 2 h, 10 µM [5]: 10.7 ± 2.5 ×10⁻⁶ cm/s
Papp A-B [6]: 3.1 ± 1.3 cm/s x 10-6
Papp B-A [6]: 10.7 ± 2.5 cm/s x 10-6
IC50 [1, 10]: 0.36 ± 0.04 µM
Hill slope [1]: -1.39
IC50 [1, 12]: 0.364 µM
inhibitory activity against RNMT [7]: None of the tested compounds exhibited any inhibitory activity
Microsomal stability % of the parent compound after 45 min, Mouse [8]: 95 ± 5.0%
Plasma stability % of the parent compound after 120 min, Human [9]: 103 ± 3.3%

Nc1ncnc2c1ncn2[C@@H]1O[C@H](C(=O)Nc2ccc3c(C(F)(F)F)cc(=O)oc3c2)[C@@H](O)[C@H]1O [12m]
Plasma stability % of the parent compound after 120 min, Mouse [3]: 67 ± 3.5%
stability in mouse plasma (in words) ([3]; plasma): unstable
Microsomal stability % of the parent compound after 45 min, Human [4]: 90 ± 9.1%
efflux ratio at 2 h, 10 µM [5]: 4.1
recovery at 2 h, 10 µM ([5]; Caco-2, Recovery (%) A-B): 96%
recovery at 2 h, 10 µM ([5]; Caco-2, Recovery (%) B-A): 130%
Papp A→B at 2 h, 10 µM [5]: 8 ± 2.9 ×10⁻⁶ cm/s
Papp B→A at 2 h, 10 µM [5]: 32.9 ± 5.3 ×10⁻⁶ cm/s
Papp A-B [6]: 8.0 ± 2.9 cm/s x 10-6
Papp B-A [6]: 32.9 ± 5.3 cm/s x 10-6
IC50 [1, 10]: 1.47 ± 0.14 µM
Hill slope [1]: -1.01
IC50 [1, 12]: 1.47 µM
Microsomal stability % of the parent compound after 45 min, Mouse [8]: 93 ± 9.4%
Plasma stability % of the parent compound after 120 min, Human [9]: 20 ± 1.4%
stability in human plasma (in words) ([9]; plasma): unstable

Cc1cc(=O)[nH]c2cc(NC(=O)[C@H]3O[C@@H](n4cnc5c(N)ncnc54)[C@H](O)[C@@H]3O)ccc12 [12n]
EC50 [2]: > 50 µM
Plasma stability % of the parent compound after 120 min, Mouse [3]: 78 ± 0.3%
Microsomal stability % of the parent compound after 45 min, Human [4]: 95 ± 0.0%
efflux ratio at 2 h, 10 µM [5]: 0.5
recovery at 2 h, 10 µM ([5]; Caco-2, Recovery (%) A-B): 79%
recovery at 2 h, 10 µM ([5]; Caco-2, Recovery (%) B-A): 87%
Papp A→B at 2 h, 10 µM [5]: 4.4 ± 1.8 ×10⁻⁶ cm/s
Papp B→A at 2 h, 10 µM [5]: 2.2 ± 0.4 ×10⁻⁶ cm/s
Papp A-B [6]: 4.4 ± 1.8 cm/s x 10-6
Papp B-A [6]: 2.2 ± 0.4 cm/s x 10-6
IC50 [1, 10]: 0.35 ± 0.04 µM
Hill slope [1]: -1.19
inhibitory activity against RNMT [7]: None of the tested compounds exhibited any inhibitory activity
Microsomal stability % of the parent compound after 45 min, Mouse [8]: 90 ± 2.9%
Plasma stability % of the parent compound after 120 min, Human [9]: 97 ± 2.0%

Nc1ncnc2c1ncn2[C@@H]1O[C@H](C(=O)Nc2ccc3c(c2)NC(=O)CC3)[C@@H](O)[C@H]1O [12o]
IC50 [1, 10]: 6.55 ± 1.44 µM
Hill slope [1]: -0.91
IC50 [1, 12]: 6.55 µM

Nc1ncnc2c1ncn2[C@@H]1O[C@H](C(=O)Nc2ccc3cccnc3c2)[C@@H](O)[C@H]1O [12p]
IC50 [1, 10]: 4.81 ± 2.54 µM
Hill slope [1]: -1.45
IC50 [1, 12]: 4.81 µM

COC(=O)c1ccc(C(=O)NC[C@H]2O[C@@H](n3cnc4c(N)ncnc43)[C@H](O)[C@@H]2O)cc1 [21a]
inhibitory activity against nsp14 (in words) [1]: significant decrease or complete loss of the inhibitory activity
IC50 [1, 11]: N.I.

Nc1ncnc2c1ncn2[C@@H]1O[C@H](CNC(=O)c2ccc3c(c2)OCCO3)[C@@H](O)[C@H]1O [21k]
inhibitory activity against nsp14 (in words) [1]: significant decrease or complete loss of the inhibitory activity
IC50 [1, 11]: N.I.

Nc1ncnc2c1ncn2[C@@H]1O[C@H](CNS(=O)(=O)c2ccc3c(c2)OCCO3)[C@@H](O)[C@H]1O [22k]
inhibitory activity against nsp14 (in words) [1]: significant decrease or complete loss of the inhibitory activity
IC50 [1, 10]: 15.3 ± 2.55 µM
Hill slope [1]: -1.55

C[C@H]1O[C@@H](O[C@H]2[C@@H](O)C[C@H](O[C@H]3[C@@H](O)C[C@H](O[C@H]4CC[C@@]5(C)[C@H](CC[C@@H]6[C@@H]5C[C@@H](O)[C@]5(C)[C@@H](C7=CC(=O)OC7)CC[C@]65O)C4)O[C@@H]3C)O[C@@H]2C)C[C@H](O)[C@@H]1O [Digoxin, reference compound]
recovery at 2 h, 10 µM ([5]; Caco-2, Recovery (%) A-B, Table S2, A to B transport): 131%
recovery at 2 h, 10 µM ([5]; Caco-2, Recovery (%) B-A, Table S2, B to A transport): 77%

Cc1cc(=O)oc2cc(SC[C@H]3O[C@@H](n4cnc5c(N)ncnc54)[C@H](O)[C@@H]3O)ccc12 [compound 24]
inhibitory activity against nsp14 (in words) [1]: significant decrease or complete loss of the inhibitory activity
IC50 [1, 10]: 3.67 ± 0.4 µM
Hill slope [1]: -1.04
IC50 [1, 12]: 3.67 µM

Cc1cc(=O)oc2cc(S(=O)(=O)C[C@H]3O[C@@H](n4cnc5c(N)ncnc54)[C@H](O)[C@@H]3O)ccc12 [compound 25]
inhibitory activity against nsp14 (in words) [1]: significant decrease or complete loss of the inhibitory activity
IC50 [1, 10]: > 25 µM
